Assay results from US20250289789A1, “REVERSIBLE LYSINE COVALENT MODIFIERS OF CDK2 AND USES THEREOF” (Terremoto Biosciences, Inc., priority 2023, published 2025).

Key:
Assay type in all cases: cell-based
[1] = target: T1, CDK2-NanoLuc fusion with CCNE1 in 293T or 293 cells (Homo sapiens, UniProt P24941); test: NanoBRET Target Engagement (TE) Intracellular Kinase Assay, CDK2/CCNE1; conditions: NanoBRET TE intracellular kinase assay, 2-hour incubation, read-out: NanoBRET-CDK2/E1 IC50
T1 construct: host or cells: 293T (ATCC CRL-3216) or 293 (ATCC CRL-1573)

[2] = test system: Phospho-Rb Ser807/811 in OVCAR3 cells; test: OVCAR3 Phospho-Rb Ser807/811 HTRF assay; conditions: Homo sapiens, OVCAR-3, 1 h, OVCAR3 cells, Phospho-Rb Ser807/811 HTRF, 1 hour incubation; read-out: pRb-OVCAR3 IC50
Description: Cells were trypsinized and resuspended in 1 mM hydroxyurea (Sigma; H8627), 90% RPMI and 10% fetal bovine serum. […] Dose response curve normalized to DMSO control was plotted using four-parameter logistic model for IC50 calculation.

[3] = target: T2, CDK4-NanoLuc fusion with CCND1 in 293T or 293 cells (Homo sapiens, UniProt P11802); test: NanoBRET Target Engagement (TE) Intracellular Kinase Assay, CDK4/CCND1; conditions: NanoBRET TE intracellular kinase assay, 2-hour incubation, read-out: NanoBRET-CDK4/D1 IC50
T2 construct: host or cells: 293T (ATCC CRL-3216) or 293 (ATCC CRL-1573)

[4] = target: T3, CDK1-NanoLuc fusion with CCNB1 in 293T or 293 cells (Homo sapiens, UniProt P06493); test: NanoBRET Target Engagement (TE) Intracellular Kinase Assay, CDK1/CCNB1; conditions: NanoBRET TE intracellular kinase assay, 2-hour incubation, read-out: NanoBRET-CDK1/B1 IC50
T3 construct: host or cells: 293T (ATCC CRL-3216) or 293 (ATCC CRL-1573)
In short: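 293T or 293 cells co-transfected with CDK1-NanoLuc and CCNB1 vectors, incubated 24 h, then exposed to NanoBRET Tracer K-10 plus compound for 2 h at 37° C. BRET ratio (610/450 nm) normalized to DMSO; IC50 from four-parameter logistic fit.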

T2 sequence (P11802 whole entry, the tested form may be a part): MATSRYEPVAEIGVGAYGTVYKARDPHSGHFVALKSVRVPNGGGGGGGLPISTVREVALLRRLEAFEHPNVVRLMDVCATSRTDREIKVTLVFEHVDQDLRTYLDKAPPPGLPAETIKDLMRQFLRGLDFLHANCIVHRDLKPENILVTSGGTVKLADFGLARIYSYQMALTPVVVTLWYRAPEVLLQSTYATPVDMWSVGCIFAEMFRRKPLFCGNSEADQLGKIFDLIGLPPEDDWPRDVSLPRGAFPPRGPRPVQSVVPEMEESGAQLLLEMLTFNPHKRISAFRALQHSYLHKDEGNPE
T2 sequence (P24385 whole entry partner, the tested form may be a part): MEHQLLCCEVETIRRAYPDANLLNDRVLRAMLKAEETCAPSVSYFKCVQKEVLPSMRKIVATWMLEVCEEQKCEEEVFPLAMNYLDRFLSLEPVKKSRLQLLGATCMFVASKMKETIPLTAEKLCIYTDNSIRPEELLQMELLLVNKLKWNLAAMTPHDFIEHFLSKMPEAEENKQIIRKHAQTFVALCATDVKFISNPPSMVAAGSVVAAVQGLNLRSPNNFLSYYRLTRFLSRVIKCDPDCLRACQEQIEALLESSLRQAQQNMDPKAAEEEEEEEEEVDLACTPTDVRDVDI
T3 sequence (P06493 whole entry, the tested form may be a part): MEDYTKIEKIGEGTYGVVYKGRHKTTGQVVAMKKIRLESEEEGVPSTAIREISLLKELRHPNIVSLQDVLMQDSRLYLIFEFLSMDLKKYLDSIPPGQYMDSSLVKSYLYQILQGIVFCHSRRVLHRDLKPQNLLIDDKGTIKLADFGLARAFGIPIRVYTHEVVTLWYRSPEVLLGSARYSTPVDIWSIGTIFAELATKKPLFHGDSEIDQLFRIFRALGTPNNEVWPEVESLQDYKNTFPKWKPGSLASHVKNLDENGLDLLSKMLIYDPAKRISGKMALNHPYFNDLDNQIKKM
T3 sequence (P14635 whole entry partner, the tested form may be a part): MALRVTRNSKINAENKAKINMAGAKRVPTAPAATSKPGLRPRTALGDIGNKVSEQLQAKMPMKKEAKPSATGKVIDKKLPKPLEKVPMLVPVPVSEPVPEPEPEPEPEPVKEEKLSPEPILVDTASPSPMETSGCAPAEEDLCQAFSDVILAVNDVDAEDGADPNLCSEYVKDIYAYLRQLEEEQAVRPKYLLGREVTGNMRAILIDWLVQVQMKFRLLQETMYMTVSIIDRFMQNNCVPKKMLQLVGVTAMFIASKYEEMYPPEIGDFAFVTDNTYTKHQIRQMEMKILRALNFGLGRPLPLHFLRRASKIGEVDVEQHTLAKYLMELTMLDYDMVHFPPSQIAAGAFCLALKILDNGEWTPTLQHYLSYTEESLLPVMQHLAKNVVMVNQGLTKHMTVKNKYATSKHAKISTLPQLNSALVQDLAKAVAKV

Structure (SMILES)	IC50 [1]	IC50 [2]	IC50 [3]	IC50 [4]
CC(C)NC(=O)O[C@@H]1CC[C@H](c2cc(NC(=O)Cc3ccc(C=O)c(O)c3)n[nH]2)C1 [Compound 4, (1R,3S)-3-{5-[2-(4-formyl-3-hydroxyphenyl)acetamido]-2H-pyrazol-3-yl}cyclopentyl N-isopropylcarbamate]	5.47 nM	68.8 nM	6.91 nM	7.08 nM
CC(C)NC(=O)O[C@@H]1CC[C@H](c2cc(NC(=O)Cc3ncc(-c4cccc(O)c4C=O)s3)n[nH]2)C1 [Compound 66, (1R,3S)-3-(5-{2-[5-(2-formyl-3-hydroxyphenyl)-1,3-thiazol-2-yl]acetamido}-2H-pyrazol-3-yl)cyclopentyl N-isopropylcarbamate; trifluoroacetic acid]	8.87 nM	1690 nM	779 nM	390 nM
COc1cc(O)c(C=O)c(OCC(=O)Nc2cc([C@H]3CC[C@@H](OC(=O)NC4(C#N)CC4)C3)[nH]n2)c1 [Compound 215]	10.3 nM	41.5 nM	> 6270 nM	20.6 nM
CC(C)NC(=O)O[C@@H]1CC[C@H](c2cc(NC(=O)C3CCN(c4cccc(O)c4C=O)C3)n[nH]2)C1 (stereo partly drawn) [Compound 93, (1R,3S)-3-{5-[1-(2-formyl-3-hydroxyphenyl)pyrrolidine-3-amido]-2H-pyrazol-3-yl}cyclopentyl N-isopropylcarbamate]	8.52 nM	391 nM	2280 nM	169 nM
CC(C)NC(=O)O[C@@H]1CC[C@H](c2cc(NC(=O)c3cn(-c4cccc(O)c4C=O)nc3C(F)F)n[nH]2)C1 [Compound 54, (1R,3S)-3-(3-(3-(difluoromethyl)-1-(2-formyl-3-hydroxyphenyl)-1H-pyrazole-4-carboxamido)-1H-pyrazol-5-yl)cyclopentyl isopropylcarbamate]	23.4 nM	1690 nM	> 10000 nM	175 nM
COc1cc(O)c(C=O)c(OCC(=O)Nc2cc([C@H]3CC[C@@H](OC(=O)N4C5CCC4CC5)C3)[nH]n2)c1 [Compound 229]	1.75 nM	28.8 nM	1900 nM	1.97 nM
CC(C)NC(=O)O[C@@H]1CC[C@H](c2cc(NC(=O)c3cc(COc4cccc(O)c4C=O)nn3C)n[nH]2)C1 [Compound 27, (1R,3S)-3-{5-[5-(2-formyl-3-hydroxyphenoxymethyl)-2-methylpyrazole-3-amido]-2H-pyrazol-3-yl}cyclopentyl N-isopropylcarbamate]	5.24 nM	95.2 nM	112 nM	17.7 nM
CCn1nc(-c2cccc(O)c2C=O)cc1C(=O)Nc1cc([C@H]2CC[C@@H](OC(=O)NC(C)C)C2)[nH]n1 [Compound 60, (1R,3S)-3-{5-[2-ethyl-5-(2-formyl-3-hydroxyphenyl)pyrazole-3-amido]-2H-pyrazol-3-yl}cyclopentyl N-isopropylcarbamate; trifluoroacetic acid]	6.5 nM	230 nM	3630 nM	15.1 nM
COC[C@H](C)NC(=O)O[C@@H]1CC[C@H](c2cc(NC(=O)COc3cc(OC)cc(O)c3C=O)n[nH]2)C1 [Compound 200]	5.07 nM	27.7 nM	8410 nM	8.83 nM
CC(C)NC(=O)O[C@H]1C[C@@H](c2cc(NC(=O)COc3cccc(O)c3C=O)n[nH]2)C1 [Compound 114, (1s,3s)-3-(3-(2-(2-formyl-3-hydroxyphenoxy)acetamido)-1H-pyrazol-5-yl)cyclobutyl isopropylcarbamate]	4.44 nM	121 nM	> 10000 nM	26.7 nM
CC(C)NC(=O)O[C@@H]1CC[C@H](c2cc(NC(=O)c3ccc(C=O)c4[nH]ncc34)n[nH]2)C1 [Compound 39, (1R,3S)-3-[5-(7-formyl-1H-indazole-4-amido)-2H-pyrazol-3-yl]cyclopentyl N-isopropylcarbamate]	24.7 nM	1130 nM	474 nM	351 nM
CC(C)NC(=O)O[C@@H]1CC[C@H](c2cc(NC(=O)COc3cc(Cl)cc(O)c3C=O)n[nH]2)C1 [Compound 73, (1R,3S)-3-(3-(2-(5-chloro-2-formyl-3-hydroxyphenoxy)acetamido)-1H-pyrazol-5-yl)cyclopentyl isopropylcarbamate]	26.7 nM	299 nM	> 10000 nM	61 nM
COc1cc(O)c(C=O)c(OCC(=O)Nc2cc([C@H]3CC[C@@H](OC(=O)N4C5COCC4C5)C3)[nH]n2)c1 [Compound 231, (1R,3S)-3-{5-[2-(2-formyl-3-hydroxy-5-methoxyphenoxy)acetamido]-2H-pyrazol-3-yl}cyclopentyl 3-oxa-6-azabicyclo[3.1.1]heptane-6-carboxylate]	3.2 nM	18.5 nM	1430 nM	< 2.64 nM
CC(C)NC(=O)O[C@@H]1CC[C@H](c2cc(NC(=O)OCc3cccc(O)c3C=O)n[nH]2)C1 [Compound 63, (2-formyl-3-hydroxyphenyl)methyl N-{5-[(1S,3R)-3-[(isopropylcarbamoyl)oxy]cyclopentyl]-1H-pyrazol-3-yl}carbamate]	9.55 nM	1260 nM	6320 nM	361 nM
CC(C)NC(=O)O[C@@H]1CC[C@H](c2cc(NC(=O)c3cc(-c4ccc(O)c(C=O)c4)nn3C)n[nH]2)C1 [Compound 31, (1R,3S)-3-{5-[5-(3-formyl-4-hydroxyphenyl)-2-methylpyrazole-3-amido]-2H-pyrazol-3-yl}cyclopentyl N-isopropylcarbamate]	5.46 nM	214 nM	3070 nM	20.4 nM

Further compounds by falling IC50 [1], results first:

IC50 [1]	IC50 [2]	IC50 [3]	IC50 [4]	Structure (SMILES)
4.44 nM	64.6 nM	9910 nM	15 nM	C#C[C@H](C)NC(=O)O[C@@H]1CC[C@H](c2cc(NC(=O)COc3cc(OC)cc(O)c3C=O)n[nH]2)C1 [Compound 216]
3.84 nM	63.7 nM	2830 nM	7.61 nM	C#C[C@@H]1CCCN1C(=O)O[C@@H]1CC[C@H](c2cc(NC(=O)COc3cc(OC)cc(O)c3C=O)n[nH]2)C1 [Compound 222]
2.68 nM	34.5 nM	2120 nM	9.01 nM	CCOc1cc(O)c(C=O)c(OCC(=O)Nc2cc([C@H]3CC[C@@H](OC(=O)N4CCC4(C)C)C3)[nH]n2)c1 [Compound 211, (1R,3S)-3-(3-(2-(5-ethoxy-2-formyl-3-hydroxyphenoxy)acetamido)-1H-pyrazol-5-yl)cyclopentyl 2,2-dimethylazetidine-1-carboxylate]
2.42 nM	34.8 nM	961 nM	5.09 nM	COc1cc(O)c(C=O)c(OCC(=O)Nc2cc([C@H]3CC[C@@H](OC(=O)NC(C)(C)C)C3)[nH]n2)c1 [Compound 128, (1R,3S)-3-(3-(2-(2-formyl-3-hydroxy-5-methoxyphenoxy)acetamido)-1H-pyrazol-5-yl)cyclopentyl tert-butylcarbamate]
2.33 nM	18.2 nM	2900 nM	5.53 nM	C#CC1(NC(=O)O[C@@H]2CC[C@H](c3cc(NC(=O)COc4cc(OC)cc(O)c4C=O)n[nH]3)C2)CC1 [Compound 218]
1.92 nM	38.7 nM	3220 nM	7 nM	COCC1(NC(=O)O[C@@H]2CC[C@H](c3cc(NC(=O)COc4cc(OC)cc(O)c4C=O)n[nH]3)C2)CCC1 (stereo in doubt) [Compound 198]
1.64 nM	32.8 nM	4100 nM	9.82 nM	COc1cc(O)c(C=O)c(OCC(=O)Nc2cc([C@H]3CC[C@@H](OC(=O)N4CC[C@H](C)C4)C3)[nH]n2)c1 [Compound 238]
1.54 nM	22.1 nM	2800 nM	7.4 nM	COc1cc(O)c(C=O)c(OCC(=O)Nc2cc([C@H]3CC[C@@H](OC(=O)N4CC[C@@H](F)C4)C3)[nH]n2)c1 [Compound 240]
1.32 nM	75.8 nM	> 10000 nM	4.83 nM	Cc1ccc(OCC(=O)Nc2cc([C@H]3CC[C@@H](OC(=O)NC(C)C)C3)[nH]n2)c(C=O)c1O [Compound 56, (1R,3S)-3-(3-(2-(2-formyl-3-hydroxy-4-methylphenoxy)acetamido)-1H-pyrazol-5-yl)cyclopentyl isopropylcarbamate]
1.26 nM	115 nM	> 10000 nM	21.5 nM	COc1cccc(OCC(=O)Nc2cc([C@H]3CC[C@@H](OC(=O)NC(C)C)C3)[nH]n2)c1C=O [Compound 95, (1R,3S)-3-{5-[2-(2-formyl-3-methoxyphenoxy)acetamido]-2H-pyrazol-3-yl}cyclopentyl N-isopropylcarbamate; trifluoroacetic acid]
1.22 nM	15.1 nM	966 nM	4.13 nM	COc1cc(O)c(C=O)c(OCC(=O)Nc2cc([C@H]3CC[C@@H](OC(=O)NC4(C)CC4)C3)[nH]n2)c1 [Compound 251, (1R,3S)-3-(3-(2-(2-formyl-3-hydroxy-5-methoxyphenoxy)acetamido)-1H-pyrazol-5-yl)cyclopentyl (1-methylcyclopropyl)carbamate]
